Consider ten compounds from US11666559B2, “Spiro-lactam compounds, process and uses thereof” (UNIVERSIDADE DE COIMBRA, priority 2017, dated 2023).

One data set has as its system TZM-bl cells. Nature of the data set: Cellular viability assay (alamarBlue) in TZM-bl cells. An excerpt: In an embodiment, the cellular cytotoxicity of 17 spiro-β-lactams was investigated in TZM-bl cells using the AlamarBlue assay as recommended by the manufacturer (Invitrogen, USA). TZM-bl, previously designated JC53-bl (clone 13) is a HeLa cell line. The parental cell line (JC.53) stably expresses large amounts of CD4, CCR5 and CXCR4. The TZM-bl cell line was generated from JC.53 cells by introducing separate integrated copies of the luciferase and […] genes under control of the HIV-1 promoter. The TZM-bl cell line is highly sensitive to infection with diverse isolates of HIV.
In an embodiment, the cellular viability assay was carried out as follows: the potential in vitro cytotoxicity of all BSS compounds was evaluated in TZM-bl cells. TZM-bl cells (10000 cells/well in 96-well plates) were incubated in absence or presence of serial-two-fold dilutions of the compounds in growth medium (GM), with starting concentration of 100 μg/ml and a final concentration of 0.781 μg/ml. After 48 hours, cell viability was examined with alamarBlue reagent (Invitrogen, USA) according to manufacturer's instructions. Briefly, 10 μl of alamarBlue reagent was added to each well. After 4 hours at 37° C., the fluorescence was measured in Tecan Infinite M200 (excitation wavelength 550 nm and emission wavelength 600 nm).
In an embodiment, at least two independent experiments have been performed for each cytotoxicity analysis.
In an embodiment, for each assay there were medium controls (only growth medium), cell controls (cells without test compound) and cytotoxicity controls (a compound that kill cells—SDS).
Background: The colour change of resazurin is a common sign of viable cells or microbes.

Data set [1] relates to Enterococcus faecalis ATCC 29212. Nature of the data set: Anti-bacterial activity, agar diffusion method. In kind it is cell-based. As to conditions: at the concentration of 1 mg/ml. The procedure:
(§1) In an embodiment, anti-bacterial activity of the compounds now disclosed was determined according to CLSI guidelines. The following bacteria were used: reference strains E. coli ATCC 10536, Staphylococcus aureus ATCC 6538, Bacillus subtilis ATCC 6633 and Enterococcus faecalis ATCC 29212; clinical strains of E. coli and Pseudomonas aeruginosa isolated in our laboratory; and strains of Lactobacillus rhamnosus and Lactobacillus plantarum also isolated in our laboratory. The Minimum Inhibitory Concentration (MIC) was determined by the agar diffusion method, in plates of Mueller-Hinton agar or Rogosa agar (for Lactobacilli). Briefly, 10^8 cfu/ml bacterial suspensions were prepared in sterile water and spread in the culture media. Sterile disks containing different concentrations of P3 were placed on the inoculated surface. Plates were incubated at 37° C. for 24 h or 48 h. Lactobacilli were incubated at microaerophilic conditions. A negative control made of sterile water was used. Disks of amoxicillin and imipenem were used as positive controls.

For data set [2], the system named is Escherichia coli (Clinical strain). The data set is described as follows: Anti-bacterial activity, agar diffusion method. The data set is classed as cell-based. As to conditions: at the concentration of 1 mg/ml. The procedure:
as §1
For orientation: Agar diffusion results depend on both activity and mobility in agar.

In data set [3] the test system is Escherichia coli ATCC 10536. The data set is described as follows: Anti-bacterial activity, agar diffusion method. In kind it is cell-based. The conditions noted are these: at the concentration of 1 mg/ml. On the procedure: as §1
The test system of the next data set is Lactobacillus plantarum. The data set is described as follows: Anti-bacterial activity, agar diffusion method. In kind it is cell-based. As to conditions: at the concentration of 1 mg/ml. On the procedure:
as §1

A further data set has as its system Lactobacillus rhamnosus. The data set is described as follows: Anti-bacterial activity, agar diffusion method. In kind it is cell-based. As to conditions: at the concentration of 1 mg/ml. The procedure: as §1
Data set [4] concerns Pseudomonas aeruginosa (Clinical strain). The data set is described as follows: Anti-bacterial activity, agar diffusion method. The data set is classed as cell-based. The conditions noted are these: at the concentration of 1 mg/ml. The procedure: as §1
Data set [5] deals with Staphylococcus aureus ATCC 6538. The data set is described as follows: Anti-bacterial activity, agar diffusion method. In kind it is cell-based. As to conditions: at the concentration of 1 mg/ml. On the procedure:
as §1

The subject of data set [6] is Bacillus subtillis ATCC 6633. Nature of the data set: Anti-bacterial activity, agar diffusion method. In kind it is cell-based, Bacillus subtilis. The conditions noted are these: at the concentration of 1 mg/ml. The procedure:
as §1

In the next data set the test system is HIV-1. The conditions noted are these: for IC50 / IC90: TZM-bl cells. On the procedure: (§2) In an embodiment, TZM-bl cells (AIDS Research and Reference Reagent Program, National Institutes of Health, USA) were cultured in complete growth medium that consists of Dulbecco's minimal essential medium (DMEM) supplemented with 10% fetal bovine serum (FBS), 100 U/ml of penicillin-streptomycin (Gibco/Invitrogen, USA), 1 mM of sodium pyruvate (Gibco/Invitrogen, USA), 2 mM of L-glutamine (Gibco/Invitrogen, USA) and 1 mM of non-essential amino acids (Gibco/Invitrogen, USA).
(§3) In an embodiment, the primary isolates 93AOHDC249, 93AOHDC250, 01PTHDECJN and 03PTHCC9, used in this study were previously isolated, titrated and characterized for co-receptor usage. HIV reference strain SG3.1 was obtained by transfection of HEK293T cells with pSG3.1 (HIV-1) plasmid using Fugene 6 reagent (Roche, Switzerland) according to manufacturer's instructions.
(§4) In an embodiment, the 50% tissue culture infectious dose (TCID50) of the virus was determined in a single-round viral infectivity assay using a luciferase reporter gene assay in TZM-bl cells and calculated using the statistical method of Reed and Muench^27.
(§5) In an embodiment, the antiviral activity of the compounds was determined in a single-round assay with TZM-bl cells as previously described ^26. Cells were infected with 200 TCID50 of virus in the presence of serial fold dilutions of the BSS compounds in GM, supplemented with DEAE-dextran (19.7 μg/ml). After 48 h of infection, luciferase expression was quantified with the One-Glow luciferase assay substrate reagent (Promega, USA) according to manufacturer's instructions. Briefly, a volume of reagent equal to that of the culture medium in each well was added. For 96-well plates, typically 100 μl of reagent is added to the cells grown in 100 μl of medium. After an incubation of 3 minutes at room temperature to allow complete cell lysis luminescence was measured in Tecan Infinite M200. Background luminescence was measured by using control wells that contained only target cells and GM. Maraviroc (CCR5 antagonist), T1249 (fusion inhibitor) and AMD3100 (CXCR4 antagonist) were used as positive controls of the antiviral activity. At least two independent experiments were performed for each analysis and each assay was set up in triplicate wells.
(§6) In an embodiment, dose-response curves were estimated from the percentage of inhibition of infection (y-axis) against logo of concentration of each compound (x-axis) using the sigmoidal dose-response equation (variable slope) in GraphPad Prism version 5.00 for Windows (GraphPad Software, San Diego Calif. USA, www.graphpad.com). IC50 and IC90 values were determined from this curve. IC50 and IC90 values correspond to the concentration of compound that inhibits viral replication in 50% and 90%, respectively.

A further data set has as its system HIV-2. On the procedure: as §2, §3, §4, §5, §6
The next data set relates to P. berghei liver stages. The data set is described as follows: In vitro activity against the liver stage of Plasmodium infection (luciferase assay in Huh7 cells). In kind it is cell-based, Plasmodium berghei. The conditions noted are these: P. berghei liver stages in Huh7 cells. The procedure: FIG. 6: Compound activity against P. berghei liver stages. Anti-Plasmodial activity (infection axis, bars) and toxicity to hepatoma cells (cell confluency axis, circles) are shown. Infection loads of Huh7 cells, a human hepatoma cell line, were determined by bioluminescence measurements of cell lysates 48 h after infection with luciferase-expressing P. berghei parasites. Luciferase assay in 96 well-plate; 10 000 Huh7 cells/well+10 000 PbA-LuciGFPcon spz/well.
In an embodiment, the in vitro activity against the liver stage of Plasmodium infection was also carried out: inhibition of liver stage Plasmodium infection by test compounds was determined by measuring the luminescence intensity in Huh-7 cells infected with a firefly luciferase-expressing P. berghei line, as previously described. Briefly, Huh-7 cells, a human hepatoma cell line, were cultured in 1640 RPMI medium supplemented with 10% v/v fetal bovine serum, 1% v/v nonessential amino acids, 1% v/v penicillin/streptomycin, 1% v/v glutamine, and 10 mM 4-(2-hydroxyethyl)-1-piperazineethanesulfonic acid (HEPES), pH 7, and maintained at 37° C. with 5% CO2. For infection assays, Huh-7 cells (1.0×10^4 per well) were seeded in 96-well plates the day before drug treatment and infection. The medium was replaced by medium containing the appropriate concentration of each compound approximately 1 h prior to infection with sporozoites freshly obtained through disruption of salivary glands of infected female Anopheles stephensi mosquitoes. Sporozoite addition was followed by centrifugation at 1700×g for 5 min. Parasite infection load was measured 48 h after infection by a bioluminescence assay (Biotium). The effect of the compounds on the viability of Huh-7 cells was assessed by the AlamarBlue assay (Invitrogen, U.K.) using the manufacturer's protocol.

The mark [7] stands for this setting: 93AOHDC249, CCR5 tropic HIV-1 primary isolate.
Where [8] appears, read: SG3.1, CXCR4 tropic HIV-1 adapted isolate.
The mark [9] stands for this setting: 03PTHCC19, CCR5 tropic HIV-2 isolate, TZM-bl cells, wa = without antiviral activity.

Like-named read-outs stand apart in the source and are kept apart here.

Consider `COC(=O)C1=C(C(=O)OC)[C@@]2(N=N1)C(=O)N1[C@@H](C(=O)O)C(C)(C)S[C@@H]12` [BSS-587, (2,3′R,5R)-4′,5′-bis(methoxycarbonyl)-3,3-dimethyl-7-oxo-4-thia-1-azaspiro[bicyclo[3.2.0]heptane-6,3′-pyrazole]-2-carboxylic acid], for which the CC50 with TZM-bl cells (Table 2, TZM-bl cells, 48 hours, alamarBlue) is 136 µM. In addition, the inhibitory activity result (in data set [1]; in [2]; in data set [3]; in the data set with Lactobacillus plantarum; in the data set with Lactobacillus rhamnosus; in [4]) was “no inhibitory activity” in each case. Moreover, the inhibitory activity result in data set [5] and in data set [6] was “no inhibitory activity” throughout.

The compound `CC(=O)C1=NNC2(C1)C(=O)N1C(C(=O)O)C(C)(C)SC12` (centres unmarked) [BSS-591, Spiro[penicillanic-6,5′-(3-acetyl-2-pyrazoline)] acid] came in with a CC50 with TZM-bl cells of 164 µM. For the same compound, the inhibitory activity entry (in data set [1]; in data set [2]; in data set [3]; in the data set with Lactobacillus plantarum; with Lactobacillus rhamnosus; in data set [4]) was “no inhibitory activity” throughout. Besides, the inhibitory activity result in [5] and in [6] was “no inhibitory activity” each time.

In the data set on TZM-bl cells, `CCOC(=O)C1=NNC2(C1)C(=O)N1C(C(=O)O)C(C)(C)SC12` (centres unmarked) [BSS-597, Spiro[penicillanic-6,5′-(3-ethoxycarbonyl-2-pyrazoline)] acid] displayed a CC50 of 152 µM. Moreover, the inhibitory activity result (in [1]; in data set [2]; in [3]; in the data set with Lactobacillus plantarum; in the data set on Lactobacillus rhamnosus; in data set [4]) was “no inhibitory activity” throughout. The inhibitory activity result in data set [5] and in [6] was “no inhibitory activity” in each case.

Regarding `COC(=O)C1C(C(=O)OCc2ccccc2)=CCC12C(=O)N1[C@@H](C(=O)OC(c3ccccc3)c3ccccc3)C(C)(C)S[C@@H]12` (some centres unmarked) [BSS-722A], the “anti-HIV activity against HIV-1 (in words)” value with HIV-1 was “potent activity”. In addition, the “MPI (maximum percentage of inhibition)” value is reported as 99% in the data set with HIV-1 (setting [7]); 97% in the data set on HIV-1 (setting [8]); 90% in the data set with HIV-2 (03PTHCC19, CCR5 tropic HIV-2 isolate, wa = without antiviral activity). Also, the “TI (in vitro therapeutic index, CC50/IC50)” value with HIV-1 (setting [7]) came out at 161.80; in the data set with HIV-1 (setting [8]) it was 82.64; in the data set with HIV-2 (03PTHCC19, CCR5 tropic HIV-2 isolate), 105.29. Besides, the IC50 – broadly, the concentration that gives 50% inhibition – in the data set on HIV-1 (setting [7]) worked out at 0.332 µM; in the data set with HIV-1 (setting [8]), 0.65 µM; in the data set with HIV-2 (setting [9]), 0.51 µM. The 90% effect concentration (IC90) (usually the concentration at which the effect reaches the 90% level) in the data set with HIV-1 (setting [7]) was 0.701 µM; in the data set on HIV-1 (setting [8]), 1.09 µM; in the data set on HIV-2 (setting [9]), 1.18 µM. In addition, in the data set with HIV-2, the “anti-HIV activity against HIV-2 (in words)” value is “potent activity”. Further, the CC50 in the data set on TZM-bl cells was 53.7 µM; in the data set on TZM-bl cells (read-out: CC50 (cytotoxic concentration 50%), Table 1, TZM-bl cells, 48 hours, alamarBlue) it was 53.7 µM. In addition, the “anti-Plasmodium activity (in words)” value with P. berghei liver stages is “presented activity”.

In turn, `CC(=O)C1C(C(=O)OCc2ccccc2)=CCC12C(=O)N1[C@@H](C(=O)OC(c3ccccc3)c3ccccc3)C(C)(C)S[C@@H]12` (some centres unmarked) [BSS-793B] returned a CC50 in the data set with TZM-bl cells of 47.7 µM.

In turn, `CC(=O)C1C(C)C=C(C(=O)OCc2ccccc2)C12C(=O)N1[C@@H](C(=O)OC(c3ccccc3)c3ccccc3)C(C)(C)S[C@@H]12` (some centres unmarked) [BSS-794B] had a CC50 in the data set with TZM-bl cells of 49 µM.

The compound `CC1(C)S[C@H]2N(C(=O)C23C(C(=O)c2ccccc2)N=NC3c2ccccc2)[C@H]1C(=O)OC(c1ccccc1)c1ccccc1` (some centres unmarked) [BSS-971S] registered a CC50 with TZM-bl cells of 82 µM.

Consider `CC(C)(C)OC(=O)C1=NNC(c2ccccc2)C12C(=O)N1[C@@H](C(=O)OC(c3ccccc3)c3ccccc3)C(C)(C)S[C@@H]12` (some centres unmarked) [BSS-973C], for which the CC50 in the data set with TZM-bl cells stood at 79.8 µM.

In turn, `CC(=O)C1=NNC(c2ccccc2)C12C(=O)N1[C@@H](C(=O)OC(c3ccccc3)c3ccccc3)C(C)(C)S[C@@H]12` (some centres unmarked) [BSS-974C] registered a CC50 in the data set with TZM-bl cells of 80.8 µM.

On to `CC(=O)C1N=NC(c2ccccc2)C12C(=O)N1[C@@H](C(=O)OC(c3ccccc3)c3ccccc3)C(C)(C)S[C@@H]12` (some centres unmarked) [BSS-974S], for which the CC50 in the data set on TZM-bl cells amounted to 91.9 µM.
